# Earlier results, collected in patent US20210298340A1, “Cannabis-Infused Product with Extended Cannabinoid Profile User Experience” (HEXO Operations Inc., priority 2018, published 2021).
# Where two headings read alike, the source gives them in different places.
# Assays:
# [1] = dogs; emulsion with droplet size 119 nm or 52 nm
# [2] = rats; solution in MCT oil or emulsion with droplet size 160 nm or 710 nm
# [3] = tested on: skin; details: 3 macro-emulsions >1000 nm and 3 nano-emulsions <100 nm
structure (smiles),measurement,setting,value
CCCCN(CCCC)CCC(O)c1cc2c(Cl)cc(Cl)cc2c2cc(C(F)(F)F)ccc12 (stereo not drawn) [halofantrine],bioavailability,[1],comparable
COc1nc(C(Cl)(Cl)Cl)c(Cl)c(OC)c1Cl [penclomedine],bioavailability,[2],comparable
CCCCNc1ccc(C(=O)OCCN(C)C)cc1 [tetracaine],influence of emulsion droplet size on in vitro dermal and transdermal skin penetration,[3],no influence
